Molecular target: Beta-3 adrenergic receptor (Rattus norvegicus) (UniProt P26255)
Assay: Beta-3-adrenergic activity measured by percent response against free fatty acid (FFA) in rat plasma at a dosage of 0.1 mg/kg
Format: functional, organism-based
Parameters: dose 0.1 mg/kg

Sequence of Beta-3 adrenergic receptor (Rattus norvegicus) (P26255 whole entry): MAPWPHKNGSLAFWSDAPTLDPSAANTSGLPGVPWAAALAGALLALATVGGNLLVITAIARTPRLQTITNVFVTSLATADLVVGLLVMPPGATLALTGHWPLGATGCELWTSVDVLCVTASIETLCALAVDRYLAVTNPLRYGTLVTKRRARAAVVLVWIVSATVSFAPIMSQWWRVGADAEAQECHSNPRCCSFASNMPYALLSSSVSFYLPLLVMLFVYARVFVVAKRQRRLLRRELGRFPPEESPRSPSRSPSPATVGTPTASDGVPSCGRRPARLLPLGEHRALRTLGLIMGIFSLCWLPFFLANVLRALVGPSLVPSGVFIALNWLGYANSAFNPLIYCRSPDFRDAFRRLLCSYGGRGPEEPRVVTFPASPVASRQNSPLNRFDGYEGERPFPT

Response [%] | Compound
86 | CC(C)OCCOC(=O)C1(C(=O)OCCOC(C)C)Oc2ccc(C[C@@H](C)NC[C@H](O)c3cccc(Cl)c3)cc2O1
26 | CC(C)C(=O)OCOC(=O)C1(C(=O)OCOC(=O)C(C)C)Oc2ccc(C[C@@H](C)NC[C@H](O)c3cccc(Cl)c3)cc2O1
101 | CCOCCOC(=O)C1(C(=O)OCCOCC)Oc2ccc(C[C@@H](C)NC[C@H](O)c3cccc(Cl)c3)cc2O1
71 | COCCOCCOC(=O)C1(C(=O)OCCOCCOC)Oc2ccc(C[C@@H](C)NC[C@H](O)c3cccc(Cl)c3)cc2O1
20 | C[C@H](Cc1ccc2c(c1)OC(C(=O)O)(C(=O)OCCOC(C)(C)C)O2)NC[C@H](O)c1cccc(Cl)c1 (stereo not given in full)
22 | CCOC(=O)COC(=O)C1(C(=O)OCC(=O)OCC)Oc2ccc(C[C@@H](C)NC[C@H](O)c3cccc(Cl)c3)cc2O1
83 | CCCCOC(=O)C1(C(=O)OCCCC)Oc2ccc(C[C@@H](C)NC[C@H](O)c3cccc(Cl)c3)cc2O1
45 | CCCCCCCCOC(=O)C1(C(=O)O)Oc2ccc(C[C@@H](C)NC[C@H](O)c3cccc(Cl)c3)cc2O1 (stereo not given in full)
14 | C[C@H](Cc1ccc2c(c1)OC(C(=O)OCOC(=O)C(C)(C)C)(C(=O)OCOC(=O)C(C)(C)C)O2)NC[C@H](O)c1cccc(Cl)c1
28 | C[C@H](Cc1ccc2c(c1)OC(C(=O)OCCc1cccc(C(F)(F)F)c1)(C(=O)OCCc1cccc(C(F)(F)F)c1)O2)NC[C@H](O)c1cccc(Cl)c1
83 | CCCCOCCOC(=O)C1(C(=O)O)Oc2ccc(C[C@@H](C)NC[C@H](O)c3cccc(Cl)c3)cc2O1 (stereo not given in full)
47 | C[C@H](Cc1ccc2c(c1)OC(C(=O)O)(C(=O)OCC1CCCCC1)O2)NC[C@H](O)c1cccc(Cl)c1 (stereo not given in full)
30 | C[C@H](Cc1ccc2c(c1)OC(C(=O)O)(C(=O)OCC[Si](C)(C)C)O2)NC[C@H](O)c1cccc(Cl)c1 (stereo not given in full)
73 | C[C@H](Cc1ccc2c(c1)OC(C(=O)OC[Si](C)(C)C)(C(=O)OC[Si](C)(C)C)O2)NC[C@H](O)c1cccc(Cl)c1
60 | C[C@H](Cc1ccc2c(c1)OC(C(=O)OCC[Si](C)(C)C)(C(=O)OCC[Si](C)(C)C)O2)NC[C@H](O)c1cccc(Cl)c1
88 | C[C@H](Cc1ccc2c(c1)OC(C(=O)OCCOc1cccc(Cl)c1)(C(=O)OCCOc1cccc(Cl)c1)O2)NC[C@H](O)c1cccc(Cl)c1
9 | CCOC(=O)C(C)OC(=O)C1(C(=O)OC(C)C(=O)OCC)Oc2ccc(C[C@@H](C)NC[C@H](O)c3cccc(Cl)c3)cc2O1 (stereo not given in full)
61 | C[C@H](Cc1ccc2c(c1)OC(C(=O)OCCCc1ccccc1)(C(=O)OCCCc1ccccc1)O2)NC[C@H](O)c1cccc(Cl)c1
23 | CCCCCCC(=O)OCOC(=O)C1(C(=O)OCOC(=O)CCCCCC)Oc2ccc(C[C@@H](C)NC[C@H](O)c3cccc(Cl)c3)cc2O1
21 | C[C@H](Cc1ccc2c(c1)OC(C(=O)OCc1ccccc1)(C(=O)OCc1ccccc1)O2)NC[C@H](O)c1cccc(Cl)c1

Response [%] | Compound
2 | C[C@H](Cc1ccc2c(c1)OC(C(=O)OCCOc1ccccc1)(C(=O)OCCOc1ccccc1)O2)NC[C@H](O)c1cccc(Cl)c1
31 | C[C@H](Cc1ccc2c(c1)OC(C(=O)OCOC(=O)c1ccccc1)(C(=O)OCOC(=O)c1ccccc1)O2)NC[C@H](O)c1cccc(Cl)c1
77 | C[C@H](Cc1ccc2c(c1)OC(C(=O)OCCC1CC1)(C(=O)OCCC1CC1)O2)NC[C@H](O)c1cccc(Cl)c1
37 | C[C@H](Cc1ccc2c(c1)OC(C(=O)OCC(=O)Oc1ccccc1)(C(=O)OCC(=O)Oc1ccccc1)O2)NC[C@H](O)c1cccc(Cl)c1
71 | C[C@H](Cc1ccc2c(c1)OC(C(=O)OCCc1cccc(Br)c1)(C(=O)OCCc1cccc(Br)c1)O2)NC[C@H](O)c1cccc(Cl)c1
46 | CCCCCCCCOC(=O)C1(C(=O)OCCCCCCCC)Oc2ccc(C[C@@H](C)NC[C@H](O)c3cccc(Cl)c3)cc2O1
58 | C[C@H](Cc1ccc2c(c1)OC(C(=O)OC/C=C/c1ccccc1)(C(=O)OC/C=C/c1ccccc1)O2)NC[C@H](O)c1cccc(Cl)c1
84 | C[C@H](Cc1ccc2c(c1)OC(C(=O)OCC1(C)CCCCC1)(C(=O)OCC1(C)CCCCC1)O2)NC[C@H](O)c1cccc(Cl)c1
51 | C[C@H](Cc1ccc2c(c1)OC(C(=O)O)(C(=O)OCCOc1ccccc1)O2)NC[C@H](O)c1cccc(Cl)c1 (stereo not given in full)
109 | C[C@H](Cc1ccc2c(c1)OC(C(=O)O)(C(=O)OCCOCc1ccccc1)O2)NC[C@H](O)c1cccc(Cl)c1 (stereo not given in full)
25 | C[C@H](Cc1ccc2c(c1)OC(C(=O)OCC(C)(C)Cc1ccccc1)(C(=O)OCC(C)(C)Cc1ccccc1)O2)NC[C@H](O)c1cccc(Cl)c1
7 | C[C@H](Cc1ccc2c(c1)OC(C(=O)OCC(=O)c1ccccc1)(C(=O)OCC(=O)c1ccccc1)O2)NC[C@H](O)c1cccc(Cl)c1
30 | CC(OC(=O)c1ccccc1)OC(=O)C1(C(=O)OC(C)OC(=O)c2ccccc2)Oc2ccc(C[C@@H](C)NC[C@H](O)c3cccc(Cl)c3)cc2O1 (stereo not given in full)
99 | C[C@H](Cc1ccc2c(c1)OC(C(=O)OCC1CC1)(C(=O)OCC1CC1)O2)NC[C@H](O)c1cccc(Cl)c1
23 | CC(OC(=O)C(C)(C)C)OC(=O)C1(C(=O)OC(C)OC(=O)C(C)(C)C)Oc2ccc(C[C@@H](C)NC[C@H](O)c3cccc(Cl)c3)cc2O1 (stereo not given in full)
19 | C[C@H](Cc1ccc2c(c1)OC(C(=O)OCOC(=O)C1CCCCC1)(C(=O)OCOC(=O)C1CCCCC1)O2)NC[C@H](O)c1cccc(Cl)c1
30 | CCCOC(=O)COC(=O)C1(C(=O)OCC(=O)OCCC)Oc2ccc(C[C@@H](C)NC[C@H](O)c3cccc(Cl)c3)cc2O1
51 | CCCCCCOC(=O)C1(C(=O)OCCCCCC)Oc2ccc(C[C@@H](C)NC[C@H](O)c3cccc(Cl)c3)cc2O1
66 | CCCCCCOC(=O)C1(C(=O)O)Oc2ccc(C[C@@H](C)NC[C@H](O)c3cccc(Cl)c3)cc2O1 (stereo not given in full)
83 | C[C@H](Cc1ccc2c(c1)OC(C(=O)OCCCOCc1ccccc1)(C(=O)OCCCOCc1ccccc1)O2)NC[C@H](O)c1cccc(Cl)c1

Response [%] | Compound
86 | C=CCOC(=O)C1(C(=O)OCC=C)Oc2ccc(C[C@@H](C)NC[C@H](O)c3cccc(Cl)c3)cc2O1
17 | CC(OC(=O)OC1CCCCC1)OC(=O)C1(C(=O)OC(C)OC(=O)OC2CCCCC2)Oc2ccc(C[C@@H](C)NC[C@H](O)c3cccc(Cl)c3)cc2O1 (stereo not given in full)
24 | CCCC(=O)OCOC(=O)C1(C(=O)OCOC(=O)CCC)Oc2ccc(C[C@@H](C)NC[C@H](O)c3cccc(Cl)c3)cc2O1
39 | CC(=O)OCOC(=O)C1(C(=O)OCOC(C)=O)Oc2ccc(C[C@@H](C)NC[C@H](O)c3cccc(Cl)c3)cc2O1
78 | CC(OC(=O)C1(C(=O)OC(C)c2ccccc2)Oc2ccc(C[C@@H](C)NC[C@H](O)c3cccc(Cl)c3)cc2O1)c1ccccc1 (stereo not given in full)
63 | CCC(CC)OC(=O)C1(C(=O)OC(CC)CC)Oc2ccc(C[C@@H](C)NC[C@H](O)c3cccc(Cl)c3)cc2O1
43 | C[C@H](Cc1ccc2c(c1)OC(C(=O)OCCCCc1ccccc1)(C(=O)OCCCCc1ccccc1)O2)NC[C@H](O)c1cccc(Cl)c1
78 | C[C@H](Cc1ccc2c(c1)OC(C(=O)OCC(C)(C)CO)(C(=O)OCC(C)(C)CO)O2)NC[C@H](O)c1cccc(Cl)c1
39 | Cc1cccc(CCOC(=O)C2(C(=O)OCCc3cccc(C)c3)Oc3ccc(C[C@@H](C)NC[C@H](O)c4cccc(Cl)c4)cc3O2)c1
93 | C[C@H](Cc1ccc2c(c1)OC(C(=O)OCCCCCc1ccccc1)(C(=O)OCCCCCc1ccccc1)O2)NC[C@H](O)c1cccc(Cl)c1
80 | C[C@H](Cc1ccc2c(c1)OC(C(=O)OCCc1ccsc1)(C(=O)OCCc1ccsc1)O2)NC[C@H](O)c1cccc(Cl)c1
68 | C[C@H](Cc1ccc2c(c1)OC(C(=O)OCC1CCOC1)(C(=O)OCC1CCOC1)O2)NC[C@H](O)c1cccc(Cl)c1 (stereo not given in full)
8 | COc1ccc(COC(=O)C2(C(=O)OCc3ccc(OC)cc3)Oc3ccc(C[C@@H](C)NC[C@H](O)c4cccc(Cl)c4)cc3O2)cc1
22 | C[C@H](Cc1ccc2c(c1)OC(C(=O)OCC1CCCCC1)(C(=O)OCC1CCCCC1)O2)NC[C@H](O)c1cccc(Cl)c1
61 | C[C@H](Cc1ccc2c(c1)OC(C(=O)O)(C(=O)OCCC(C)(C)C)O2)NC[C@H](O)c1cccc(Cl)c1 (stereo not given in full)
58 | CCCCOCCOC(=O)C1(C(=O)OCCOCCCC)Oc2ccc(C[C@@H](C)NC[C@H](O)c3cccc(Cl)c3)cc2O1
37 | CC(C)CCC(=O)OCOC(=O)C1(C(=O)OCOC(=O)CCC(C)C)Oc2ccc(C[C@@H](C)NC[C@H](O)c3cccc(Cl)c3)cc2O1
120 | C[C@H](Cc1ccc2c(c1)OC(C(=O)OCCOCc1ccccc1)(C(=O)OCCOCc1ccccc1)O2)NC[C@H](O)c1cccc(Cl)c1
118 | C[C@H](Cc1ccc2c(c1)OC(C(=O)OC1CCCC1)(C(=O)OC1CCCC1)O2)NC[C@H](O)c1cccc(Cl)c1
11 | C[C@H](Cc1ccc2c(c1)OC(C(=O)OCC1CCCCO1)(C(=O)OCC1CCCCO1)O2)NC[C@H](O)c1cccc(Cl)c1 (stereo not given in full)

Compound | Response [%]
C[C@H](Cc1ccc2c(c1)OC(C(=O)O)(C(=O)OCC1CCC1)O2)NC[C@H](O)c1cccc(Cl)c1 (stereo not given in full) | 39
C[C@H](Cc1ccc2c(c1)OC(C(=O)O)(C(=O)OC[Si](C)(C)C)O2)NC[C@H](O)c1cccc(Cl)c1 (stereo not given in full) | 30
CCOC(=O)C1(C(=O)O)Oc2ccc(C[C@@H](C)NC[C@H](O)c3cccc(Cl)c3)cc2O1 (stereo not given in full) | 57
CC(C)CCOC(=O)C1(C(=O)O)Oc2ccc(C[C@@H](C)NC[C@H](O)c3cccc(Cl)c3)cc2O1 (stereo not given in full) | 42
C[C@H](Cc1ccc2c(c1)OC(C(=O)O)(C(=O)OCC(C)(C)C)O2)NC[C@H](O)c1cccc(Cl)c1 (stereo not given in full) | 81
C[C@H](Cc1ccc2c(c1)OC(C(=O)O)(C(=O)OCC1CC1)O2)NC[C@H](O)c1cccc(Cl)c1 (stereo not given in full) | 37
CCC(CC)OC(=O)C1(C(=O)O)Oc2ccc(C[C@@H](C)NC[C@H](O)c3cccc(Cl)c3)cc2O1 (stereo not given in full) | 52
CC(C)OC(=O)C1(C(=O)O)Oc2ccc(C[C@@H](C)NC[C@H](O)c3cccc(Cl)c3)cc2O1 (stereo not given in full) | 45
C[C@H](Cc1ccc2c(c1)OC(C(=O)O)(C(=O)OCCC1CC1)O2)NC[C@H](O)c1cccc(Cl)c1 (stereo not given in full) | 19
CCOCCOC(=O)C1(C(=O)O)Oc2ccc(C[C@@H](C)NC[C@H](O)c3cccc(Cl)c3)cc2O1 (stereo not given in full) | 73

— ChEMBL document CHEMBL1131783, “Prodrugs of CL316243: a selective beta3-adrenergic receptor agonist for treating obesity and diabetes” (Bioorg Med Chem Lett, 1999)
